Literature values as cited in the PKSmart pharmacokinetics tables (Seal et al. 2025).

Experiment: Lombardo, Berellini, Obach 2018, Drug Metab Dispos 46:1466, doi 10.1124/dmd.118.082966
Settings: human; for MRT / Vd / clearance / half-life: in vivo, iv; for fraction unbound: plasma

| Compound | MRT | Vd | clearance | half-life | fraction unbound |
| --- | --- | --- | --- | --- | --- |
| CCOP(=O)(OCC)[C@@H](NC(=O)[C@]1(O)[C@@H](O)[C@@]2(CC)C=CCN3CC[C@]4(c5cc([C@@]6(C(=O)OC)C[C@H]7C[N@@](CCc8c6[nH]c6ccccc86)C[C@@](O)(CC)C7)c(OC)cc5N(C)[C@@H]14)[C@@H]32)C(C)C | 22.2 h | 4.67 L/kg | 3.5 mL/min/kg | 34.3 h | 0.1 |
| C=C(C)[C@@H]1CCC(C)=C[C@H]1c1c(O)cc(CCCCC)cc1O | 8.23 h | 6.69 L/kg | 13.6 mL/min/kg | 23.8 h |  |
| CN1CC[C@H](c2c(O)cc(O)c3c(=O)cc(-c4ccccc4Cl)oc23)[C@H](O)C1 | 4 h | 1.5 L/kg | 6.1 mL/min/kg | 5.2 h | 0.06 |
| C[C@@H]1C[C@H]2[C@H]3CC=C4CC(=O)C=C[C@]4(C)[C@@]3(Cl)[C@@H](O)C[C@]2(C)[C@@]1(OC(=O)c1ccco1)C(=O)CCl | 2.9 h | 2.2 L/kg | 12.7 mL/min/kg | 4.4 h |  |
| Cc1nnc(SCC2=C(C(=O)O)N3C(=O)C(NC(=O)Cn4cc(Cl)c(=O)c(Cl)c4)[C@H]3SC2)s1 (some centres not stated) | 2.3 h | 0.13 L/kg | 0.95 mL/min/kg | 1.91 h |  |
| O=C(O[C@H]1C[N+]2(CCCOc3ccccc3)CCC1CC2)C(O)(c1cccs1)c1cccs1 | 1.76 h | 4.3 L/kg | 48.5 mL/min/kg |  |  |
| Cc1c(F)cc(C(=O)NC2CC2)cc1-c1ccc(C(=O)NCC(C)(C)C)cn1 | 7.38 h | 1.67 L/kg |  | 6.95 h |  |
| CS(=O)(=O)OC[C@H](O)[C@@H](O)COS(C)(=O)=O | 2 h | 0.59 L/kg | 4.9 mL/min/kg | 1.83 h |  |
| Cc1c[nH]c2c(O)cc3c(c12)[C@H](CCl)CN3C(=O)c1cc2cc(NC(=O)Nc3ccc4[nH]c(C(=O)N5C[C@@H](CCl)c6c5cc(O)c5[nH]cc(C)c65)cc4c3)ccc2[nH]1 | 1.7 h | 0.05 L/kg | 0.5 mL/min/kg | 1.6 h |  |
| COCC(=O)Nc1c(I)c(C(=O)NCC(O)CO)c(I)c(C(=O)N(C)CC(O)CO)c1I (configuration not stated) | 2.6 h | 0.22 L/kg | 1.4 mL/min/kg | 2.6 h | 0.99 |
| CN(C)C/C=C(\c1ccc(Br)cc1)c1cccnc1 | 8.22 h | 6.8 L/kg | 13.8 mL/min/kg | 6.26 h | 0.086 |
| Nc1nc(N/N=C/C2CCCCC2)nc2c1ncn2[C@@H]1O[C@H](CO)[C@@H](O)[C@H]1O | 0.19 h | 0.4 L/kg | 35.8 mL/min/kg | 0.21 h |  |
| CS(=O)(=O)c1ccc(C(=O)Nc2ccc(Cl)c(-c3ccccn3)c2)c(Cl)c1 | 341 h |  | 0.01 mL/min/kg | 245 h |  |
| CC(=O)NC(CS)C(=O)O (configuration not stated) | 3 h | 0.55 L/kg | 3.1 mL/min/kg | 5.5 h | 0.17 |
| C[C@H]1O[C@@H](O[C@H]2[C@@H](O)C[C@H](O[C@H]3[C@@H](O)C[C@H](O[C@H]4CC[C@@]5(C)[C@H](CC[C@@H]6[C@@H]5CC[C@]5(C)[C@@H](C7=CC(=O)OC7)CC[C@]65O)C4)O[C@@H]3C)O[C@@H]2C)C[C@H](O)[C@@H]1O | 170 h | 0.44 L/kg | 0.043 mL/min/kg |  | 0.066 |
| C=C1/C(=C\C=C2/CCC[C@]3(C)[C@@H]([C@H](C)CCCC(C)C)CC[C@@H]23)C[C@@H](O)C[C@@H]1O |  |  | 0.82 mL/min/kg | 48.6 h |  |
| CCC[C@H](Nc1nc(-c2ccc(NC(=O)NCC)c(OC)c2)ncc1C)c1cccnc1 | 2.5 h | 3.41 L/kg | 22.2 mL/min/kg | 2.9 h |  |

| Compound | MRT | Vd | clearance | half-life | fraction unbound |
| --- | --- | --- | --- | --- | --- |
| Cc1ncc([N+](=O)[O-])n1CC(O)CN1CCOCC1 (configuration not stated) | 7.9 h | 0.75 L/kg | 1.6 mL/min/kg | 6.2 h |  |
| CC1(C)S[C@@H]2C(/N=C/N3CCCCCC3)C(=O)N2C1C(=O)O (some centres not stated) | 1 h | 0.37 L/kg | 6.3 mL/min/kg | 1.1 h | 0.9 |
| CCCc1nn(C)c2c(=O)[nH]c(-c3cc(S(=O)(=O)N4CCN(C)CC4)ccc3OCC)nc12 | 2.5 h | 1.36 L/kg |  | 2.2 h |  |
| O=C(NC[C@H]1CN(c2ccc(N3CCOCC3=O)cc2)C(=O)O1)c1ccc(Cl)s1 | 4.9 h | 0.7 L/kg | 2.4 mL/min/kg | 7 h | 0.06 |
| COc1cc2c(cc1OC)C(Cc1cc(OC)c(OC)c(OC)c1)[N+](C)(CCCOC(=O)CC/C=C/CCC(=O)OCCC[N+]1(C)CCc3cc(OC)c(OC)cc3C1Cc1cc(OC)c(OC)c(OC)c1)CC2 (configuration not stated) | 0.87 h | 0.27 L/kg | 5.2 mL/min/kg | 0.83 h | 0.7 |
| O=c1[nH]cnc2c1ncn2[C@H]1CC[C@@H](CO)O1 | 1.2 h |  | 11 mL/min/kg | 1.4 h |  |
| C#Cc1cccc(Nc2ncnc3cc(OC)c(OCCCCCCC(O)=NO)cc23)c1 | 0.78 h | 0.56 L/kg | 12 mL/min/kg | 5.01 h |  |
| CN[C@@H]1CCc2[nH]c3ccc(C(N)=O)cc3c2C1 | 22 h | 3.6 L/kg | 2.5 mL/min/kg | 24 h |  |
| CCC[C@@H]1CC(=O)N(C(CC)C(N)=O)C1 (some centres not stated) | 12.5 h | 0.56 L/kg | 0.75 mL/min/kg | 8.98 h | 0.825 |
| C[N+]1(C)CCC(OC(=O)C(O)(c2ccccc2)C2CCCC2)C1 (configuration not stated) | 0.37 h |  |  |  |  |
| CN1CCOC(c2ccccc2)c2ccccc2C1 (configuration not stated) | 8.1 h | 5.6 L/kg | 12 mL/min/kg | 5 h |  |
| Nc1nc(=O)n([C@H]2C[C@H](O)[C@@H](CO)O2)cc1F | 2.98 h | 0.91 L/kg | 5.09 mL/min/kg | 0.78 h |  |
| CC1(C)O[C@@H]2[C@@H](CO[C@@]3(COS(N)(=O)=O)OC(C)(C)O[C@@H]23)O1 | 48.7 h | 0.8 L/kg | 0.27 mL/min/kg | 34.8 h | 0.72 |
| CC(NC(CCc1ccccc1)C(=O)O)C(=O)N1CCCC1C(=O)O (configuration not stated) | 4 h | 0.38 L/kg | 1.6 mL/min/kg | 39 h |  |
| CCCc1c(O)n2c(N(C)C)nc3ccc(C)cc3[n+]2c1O | 14 h | 0.12 L/kg | 0.14 mL/min/kg | 17 h | 0.004 |
| CC1=NS(=O)(=O)c2cc(Cl)ccc2N1 | 58 h | 0.21 L/kg | 0.06 mL/min/kg | 48 h |  |
| CCN1CC(CCN2CCOCC2)C(c2ccccc2)(c2ccccc2)C1=O (configuration not stated) | 3.7 h | 1.2 L/kg | 5.3 mL/min/kg | 4.1 h |  |
